Key:
A549 cells = experiment: Apoptotic cell death assay (Annexin V/PI); format: cell-based, human
Source text: Supplemental Materials and Methods
Small molecule NSC14073 (BKA-073) was obtained from the Drug Synthesis and Chemistry Branch, Developmental Therapeutic Program, Division of Cancer Treatment and Diagnosis, National Cancer Institute (NCI, Bethesda, MD) (http://dtp.nci.nih.gov/RequestCompounds).
Venetoclax (ABT-199, 205807) was purchased from MedKoo Biosciences (Morrisville, NC).
Antibodies including PARP (sc-8007), Bax (sc-7480), Mcl-1 (sc-12756), cytochrome c (sc-13156) and actin (sc-47778) were purchased from Santa Cruz (Santa Cruz, CA). Bcl2 antibody (05-826) was obtained from Calbiochem (Darmstadt, Germany). Bcl-XL (ab32370), Bak (ab32371) and Bax (ab104156) antibodies were purchased from Abcam (Cambridge, MA).
Active caspase 3 (9579S) and Mcl-1 (94296S) antibodies were purchased from Cell Signaling Technology (Danvers, MA). Fluorescent Bak BH3 domain peptide (FAM-GQVGRQLAIIGDDINR) and purified Bcl-XL protein were purchased from NeoBioSciTM (Cambridge, MA). Bim BH3 peptide (AS-62278) was obtained from AnaSpec, Inc. (Fremont, CA). Purified recombinant human Bak protein (BAK1-26166TH) was purchased from Creative Biomart (Shirley, NY). Purified recombinant human Bax protein (H00000581-P01) was obtained from Novus Biologicals (Littleton, CO) and purified human Bcl-XL protein (SRP0187) was purchased from Sigma-Aldrich (St. Louis, MO). Purified human Bcl2 protein was obtained from ProteinX Lab (San Diego, CA). Purified recombinant human Mcl-1 protein (GWB-P0342D) was purchased from GenWay Biotech, Inc. (San Diego, CA). Purified recombinant human Bcl-w (824-BW-050) protein was obtained from R&D systems (Minneapolis, MN). Bis (maleimido) hexane (BMH) (22330) was purchased from Thermo Scien tific (Rockford, IL). JC -1 (ENZ-52304) was obtained from Enzo Life Sciences, Inc. (Farmingdale, NY). All other reagents used were obtained from commercial sources unless otherwise stated. […]
Apoptotic cell death assay
Apoptotic cells were detected using Annexin-V Apoptosis Detection Kit (556547, BD Biosciences, San Jose, CA) according to the manufacturer’s instructions. After treatment with BKA-073 or other agent(s) for 72h, cells were washed twice with cold 1x PBS and then resuspended in 1 x Binding Buffer at a concentration of 1 x 10^6 cells/ml. 100 μl of the solution […]
(1 x 10^5 cells) was transferred to a 5 ml culture tube, followed by the addition of 5 μl of FITC Annexin V and 5 μl propidium iodide (PI). The cells were gently vortexed and incubated for 15 min at RT (25°C) in the dark. 400 μl of 1x binding buffer was added to each tube. […]
mM DTT] in black 96-well microplates. The plate was mixed o n a shaker for 1 minute and incubated at room temperature for an additional 15 minutes. The FP values (in millipolarization units) were measured using a fluorescence microplate reader at 485/530 nm (Gemini XPS, Molecular Devices). Data analysis and inhibit ory constant (Ki) value was determined by GraphPad prism software as described.
Cloning, protein expression and purification of mouse B ak protein
The clone pMIH-mRuby2-mouse Bak (#111627) for generation of mouse Bak protein was obtained from Addgene (Watertown, MA). The mouse Bak cDNA was cloned into pET29b expression vector between BglII and XhoI sites as His tag fusions. The BL21 DE3 Escherichia coli containing plasmid was grown at 37°C in LB (Luria-Bertani) media. The protein expression was induced with IPTG (0.2 mM) at 18°C for 16 h when the density reached an OD600 of 0.6.
Bacteria were then harvested and resuspended in 30 ml buffer A (20 mM Tris, pH 8.0, 120 mM NaCl, 10% glycerol, and protease inhibitor cocktail) and lysed by sonication. The lysate was centrifuged at 14,000 rpm for 30 min. The resulting supernatant was incubated with HisPur Cobalt Resin (Thermo Scientific) at 4 °C for 2h. After washing wi th buffer A, His-tagged mouse Bak proteins was eluted with buffer B (20 mM Tris, pH 8.0, 120 mM NaCl, 300 mM imidazole, 10% glycerol with protease inhibitor). The elution peak of interest was checked by SDS -PAGE […]

[1] = system: SCLC PDXs (TKO-2 and TKO-5); experiment: SCLC patient-derived xenografts, tumor growth; format: in vivo, Nu/Nu nude mice; details: 15mg/kg/d i.p., 2-4 weeks
Experimental: Six-week-old female Nu/Nu nude mice were purchased from Envigo (Indianapolis, IN) and housed under pathogen-free conditions in microisolator cages. The animal propagation protocol was approved by the Emory Institutional Animal Care and Use Committee (IACUC) and the Emory Animal Ethics Committee. 3×10^6 lung cancer cells were injected into subcutaneous tissue in the flank region of nude mice. The tumors were allowed to grow to an average volume of 150~200 mm^3 prior to initiation of therapy as previously described, [29]. Patient-derived xenografts (PDXs, TKO-002 and TKO-005) were established as part of an IRB-approved phase II co-clinical trial of arsenic trioxide in patients with relapsed SCLC who had failed standard platinum-based chemotherapy. Tumor samples were obtained by image-guided biopsy and were directly implanted into Nu/Nu nude mice without intervening propagation in plastic culture plates. Direct serial propagation of growing tumor occurred for up to 5 generations. The animal propagation protocol was approved by the Emory IACUC and the Emory Animal Ethics Committee. Mice with SCLC and NSCLC xenografts or PDXs were treated with BKA-073 intraperitoneally (i.p.) or venetoclax orally as indicated. During treatment, tumor volume (V) was measured by caliper measurements once every two days as described previously. Mice were euthanized by CO2 inhalation at the end of treatment. […]

For `COc1ccc2nc3ccccc3c(NCCNCC(C)O)c2c1` (stereo not drawn) [BKA-073], the “induction of apoptotic cell death” value (A549 cells; 0, 0.25, 0.5, 0.75, 1.0 µM, 72h) was “in a dose-dependent manner”, the “sensitivity (DBP and apoptosis)” value (A549 cells; A549 Bak-/- cells expressing A79E Bak, 1 µM) was “completely or partially restored sensitivity” and the “sensitivity (DBP and apoptosis)” value (A549 cells; A549 Bak-/- cells expressing D83E Bak, 1 µM) was “failed to restore sensitivity”. For the same molecule, the “sensitivity (DBP and apoptosis)” value (A549 cells; A549 Bak-/- cells expressing I80E Bak, 1 µM) was “completely or partially restored sensitivity”, the “sensitivity (DBP and apoptosis)” value (A549 cells; A549 Bak-/- cells expressing N86E Bak, 1 µM) was “failed to restore sensitivity” and the “sensitivity (DBP and apoptotic cell death)” value (A549 cells; A549 Bak-/- cells expressing exogenous WT Bak, 1 µM) was “restored sensitivity”. For the same molecule, the “sensitivity (DBP and apoptotic cell death)” value (A549 cells; A549 Bak-/- cells expressing ΔBH3 mutant Bak, 1 µM) was “failed to restore sensitivity”, the “sensitivity (DBP and apoptotic cell death)” value (A549 cells; A549 Bak-/- cells transfected with vector-only, 1 µM) was “resistant” and the apoptotic cell death (A549 cells; Bak-/- A549 cells) was ~ 20%. For the same molecule, the “sensitivity (DBP and apoptotic cell death)” value (A549 cells; Bak-/- A549 cells, 1μM, 16h or 72h) was “significant resistance”, the “sensitivity (DBP and apoptotic cell death)” value (A549 cells; Bax-/- A549 cells, 1μM, 16h or 72h) was “sensitive” and the apoptotic cell death (A549 cells; DKO A549 cells) was ~ 20%. For the same molecule, the “sensitivity (DBP and apoptotic cell death)” value (A549 cells; DKO A549 cells, 1μM, 16h or 72h) was “significant resistance”, the “sensitivity (DBP and apoptotic cell death)” value (A549 cells; parental A549 cells, 1μM, 16h or 72h) was “sensitive” and the tumor growth [1] was “potently suppressed tumor growth”.
